For orientation: IC50 means the concentration at which inhibition is half-maximal. As a reminder, the Km is the substrate concentration at which the rate is half of its maximum.

Assay [1] deals with T1, GLUT1 (Homo sapiens, UniProt P11166).
T1 construct: host or cells: CAL27 squamous cell carcinoma cells
T1 sequence (P11166 1-492): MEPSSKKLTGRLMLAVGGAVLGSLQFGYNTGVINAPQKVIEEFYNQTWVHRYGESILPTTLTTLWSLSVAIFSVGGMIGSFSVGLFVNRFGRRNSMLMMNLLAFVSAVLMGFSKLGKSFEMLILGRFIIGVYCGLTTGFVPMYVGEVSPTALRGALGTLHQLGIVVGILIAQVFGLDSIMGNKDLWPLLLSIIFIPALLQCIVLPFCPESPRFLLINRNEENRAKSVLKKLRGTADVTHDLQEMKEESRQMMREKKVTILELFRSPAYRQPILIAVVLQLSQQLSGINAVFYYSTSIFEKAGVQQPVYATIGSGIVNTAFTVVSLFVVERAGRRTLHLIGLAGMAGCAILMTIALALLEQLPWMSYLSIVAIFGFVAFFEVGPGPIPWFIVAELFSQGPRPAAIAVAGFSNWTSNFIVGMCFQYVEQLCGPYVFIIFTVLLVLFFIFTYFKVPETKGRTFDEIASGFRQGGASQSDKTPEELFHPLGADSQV
Kind of assay: Competition for GLUT1 binding with D-[14C]-glucose in CAL27 cells. It is filed as cell-based. The conditions noted are these: for IC50: 5 min at r.t., 1.8 μM D-[14C]-glucose, compounds 0.5–1400 μM, read-out: IC50, inhibition of D-[14C]-glucose (GLUT1 binding affinity). The method, then: (§1) CAL27 squamous cell carcinoma cells (ATCC CRL-2095) were purchased from the American Type Culture Collection (ATCC, Manassas, VA, USA). CAL27 cells were cultured in Dulbecco’s modified Eagle medium (DMEM; Gibco, ThermoFisher Scientific, Waltham, MA, USA) supplemented with L-glutamine (2.0 mM; ThermoFisher Scientific, Waltham, MA, USA), heat-inactivated fetal bovine serum (10%; Gibco, ThermoFisher Scientific, Waltham, MA, USA), and penicillin (50 U/mL)–streptomycin (50 μg/mL) solution (ThermoFisher Scientific, Waltham, MA, USA). CAL27 cells (passages 6–10) were seeded at the density of 5 × 10^5 cells/wells onto 24-well plates. The cells were used in affinity and uptake studies 2 days after seeding. The culture medium was removed, and the cells were washed with prewarmed Hank’s balanced salt solution (HBSS) without glucose (HBSS; 125 mM NaCl, 4.8 mM KCl, 1.2 mM MgSO4, 1.3 mM KH2PO4, 1.3 mM CaCl2, and 25 mM HEPES adjusted to pH 7.4). The cells were then incubated with HBSS at 37 °C for 10 min before the experiments.
The GLUT1-binding ability of the studied compounds was performed by using a known radiolabeled GLUT1 substrate, D-[^14C]-glucose (PerkinElmer, Waltham, MA, USA). Briefly, after preincubation with 500 μL of prewarmed glucose free HBSS, the cells were incubated at r.t. for 5 min with studied compounds (0.5–1400 μM) containing 1.8 μM (0.1 mCi/mL) of D-[^14C]-glucose in glucose free HBSS (250 μL) and D-[^14C]-glucose as blank. The reaction was stopped with ice-cold buffer, and the cells were washed two times with ice-cold buffer on the ice bath, lysed with 250 μL of 1% perchloric acid, and mixed with 1.0 mL of emulsifier safe cocktail (PerkinElmer, Waltham, MA, USA). The radioactivity was measured by a liquid scintillation counter (MicroBeta[2] counter, PerkinElmer, Waltham, MA, USA), (Figure S12). Half-maximal inhibitory concentration (IC50) was calculated by nonlinear regression analysis.

The subject of assay [2] is CAL27 cell line. Kind of assay: Concentration-dependent cell uptake in CAL27 cells (LC-MS/MS). The format is cell-based, human. The following applies: 5–400 μM, 5 min; for Km: read-out: Km of cellular uptake. The method, then: as §1
The cells were first preincubated as described above. The cell uptake of these novel compounds was studied by adding 5–400 μM of studied compounds in 250 μL of prewarmed glucose free HBSS buffer on top of the cell layer and incubating the cells at r.t. for 5 min, based on the optimal performance of D-[^14C]-glucose under these conditions. After incubation, the reaction was stopped with ice-cold buffer; the cells were then washed and lysed as described above.
For the LC-MS/MS analysis, an aliquot was taken from the lysates and diluted with acidified acetonitrile (0.1% formic acid) 1:1, including internal standard (IS). FDG-Tz was used as an internal standard for FDR-Tz, and vice versa. After protein precipitation, the samples were centrifuged for 10 min with 10,000 × g at 4 °C. The supernatant was then collected and transferred to vials for LC-MS/MS analysis.
The samples were analyzed with LC-MS/MS coupled with an Agilent 1200 series Rapid Resolution LC System (Agilent Technologies, Waldbronn, Germany) and Agilent 6410 Triple Quadrupole with an electrospray ionization (ESI) (Agilent Technologies, Palo Alto, CA, USA). The samples were injected (5 μL) into the reversed-phase HPLC column (Zorbax Eclipse XDB-C18 Rapid Resolution 4.6 × 50 mm, […], Agilent Technologies, Palo Alto, CA, USA). The aqueous mobile phase was 0.1% formic acid in water (A), while the organic mobile phase was 0.1% formic acid in acetonitrile (B).
The column temperature was 40 °C and the flow rate of 0.5 mL/min was used, with the following gradient 0–4 min: 5% → 95% B, 4–6 min: 95% B, 6–6.1 min: 95% → 5% B, 6.1–8 min: 5% B. The following instrument optimizations were used: 300 °C sheath gas heat, 6.5 L/min drying gas flow, 25 psi nebulizer pressure, and 4000 V capillary voltage, respectively. Detection was performed by using multiple reaction monitoring (MRM) with the following transitions: m/z 425 → 261 for FDG-Tz and m/z 395 → 261 for FDR-Tz.
The lower limit of quantification (LLOQ) for both studied compounds was 5 nM. These LC-MS/MS methods were also selective, accurate (RSD < 15%) and precise (RSD < 15%) over the range 5.0–2500 nM, with good linearity (R^2 > 0.993).
Three replicates were analyzed from each concentration, and the statistical analyses were performed using GraphPad Prism v.5.03 software (GraphPad Software, San Diego, CA, USA).

Assay [3] has as its target T1, GLUT1. The arrangement: method as in PMID 33390018. The following applies: CAL27 cells; cited from earlier work.

Molecules are shown by their SMILES. Read-outs that look alike come from different tables or passages of the source.

Consider `O=C(CON=C[C@H](F)[C@@H](O)[C@H](O)C(O)CO)NCc1ccc(-c2nncnn2)cc1` (stereo partly drawn) [FDG-Tz, N-(4-(1,2,4,5-tetrazin-3-yl)benzyl)-2-((((2S,3S,4R)-2-fluoro-3,4,5,6-tetrahydroxyhexylidene)amino)oxy)acetamide], for which the IC50 in assay [1] turned out to be 324 µM. In assay [2], the “Concentration dependence of cellular uptake (shape of curve)” value is given as “concentration-dependent”, the “Vmax of cellular uptake” value is 63.2 ± 8.5 pmol/min/mg of protein and the Km turned out to be 27.6 ± 13.8 µM.

Consider `O=C(CON=C[C@@H](O)[C@@H](O)[C@@H](O)CF)NCc1ccc(-c2nncnn2)cc1` [FDR-Tz, N-(4-(1,2,4,5-tetrazin-3-yl)benzyl)-2-((((2R,3R,4R)-5-fluoro-2,3,4-trihydroxypentylidene)amino)oxy)acetamide, reference compound], for which, in assay [1], the IC50 was found to be 22.4 µM. In assay [1] (ratio of IC50 values), the “Fold higher affinity for GLUT1 compared to FDG-Tz” value was around 15 times. Also, in assay [2], the “Vmax of cellular uptake” value is 27.8 ± 3.7 pmol/min/mg of protein and the Km came to 3.6 ± 7.8 µM.

Turning to `OC[C@H]1OC(O)[C@H](O)[C@@H](O)[C@@H]1O` (stereo partly drawn) [D-glucose], in assay [3], the IC50 is above 1000 µM.

Source of the values: publication PMC10702189, “Tetrazine Glycoconjugate for Pretargeted Positron Emission Tomography Imaging of trans-Cyclooctene-Functionalized Molecular Spherical Nucleic Acids” (ACS Omega, 2023).
